In US9163063B2, “Peptides and nanoparticles for therapeutic and diagnostic applications” (Trustees of Dartmouth College, priority 2009, dated 2015):
Ends that are not written are not given here. Peptide text beside a SMILES is read from it. * marks the point of attachment. fluorescein = fluorescein group attached to the lysine side chain; Benzoyl(4-Br) = O=C(c1ccc(Br)cc1)*; Myristoyl = CCCCCCCCCCCCCC(=O)*; Bz = O=C(c1ccccc1)*

Experiments:
AsPC1 cells [1] = assay: Cellular localization of fluorescein-tagged analogs (confocal); format: cell-based, human
Description: Furthermore, the cellular localization of both CR1023 and CR1166 was investigated in AsPC1 cells using their fluorescein-tagged analogs CR1171 and CR1173 (FIG. 24). CR1172, the fluorescein-tagged analog of CR1164 was used as a control. The green (for fluorescein) and blue (for DAPI) fluorescent microscopy images were collected for AsPC1 cells treated with peptides CR1171, CR1172 and CR1173 using a LSM 510 confocal laser scan microscope. The presence of green fluorescence in FIGS. 24d, -g, -j indicated the internalization of CR1171, CR1172 and CR1173. Untreated AsPC1 cells were devoid of the green fluorescent signal.

AsPC1 cells [2] = assay: Apoptosis assay (annexin/PI); format: cell-based, human; conditions: 50-200 μM
Experimental: (§1) MDA231-WT and AsPC1 ells were seeded into 6-well plates at a density of 4×10^5/2 ml of RPMI medium per well and grown overnight. Next day cells were treated with GIPC inhibitor peptides in a time dependent (48 h-96 h) and dose dependent manner (50-200 μM). After treatment with definite time, cells were extensively washed with PBS and tested with the Annexin V-FITC Apoptosis Detection Kit (Biovision, Cat. No. #K101-100) per the manufacturer's instructions.

MDA-MB-231-WT cells = assay: Apoptosis assay (annexin/PI); format: cell-based; conditions: 50-200 μM
Experimental: as §1

[3] = test system: MDA-MB-231-WT breast cancer cells; format: cell-based; conditions: 50-200 μM, 48 h-96 h (Example 6)
Experimental: (§2) MDA231-W and AsPC1 cells were cultured in RPMI 1640 media supplemented with 10% fetal bovine serum (FBS), 5% L-Glutamine, and 1% antibiotics (penicillin-streptomycin purchased from Invitrogen, Carlsbad, Calif.). Cells were maintained at 37° C. in an atmosphere containing 95% air-5% CO2 (v/v). Cells were then incubated with different doses of GIPC inhibitor peptides (50-200 μM) for different time (48 h to 96 h). MDA-231 WT (4×10^4) and AsPC1 cells (2×10^4) were seeded in 24-well plates, cultured for 1 d in RPMI 1640 medium supplemented with 10% FBS, 5% L-Glutamine, and 1% antibiotics. Cells were then incubated with GIPC inhibitor peptides in a time dependent (48 h-96 h) and dose dependent manner (50-200 μM). After certain time of incubation, 1 μCi [^3H]-thymidine was added and proliferation assay performed as previously described. Experiments were repeated at least thrice and in triplicate.

AsPC1 cells [4] = format: cell-based, human; conditions: 50-200 μM, 48 h-96 h (Example 6)
Experimental: as §2

[5] = test system: MIAPaCa2 pancreatic cancer cells; assay: Subcutaneous MIAPaCa2 tumor, intratumoral peptide for 27 days; format: in vivo, nude mice; conditions: whole course of treatment
Experimental: When the tumor reached about 5 mm-15 mm in diameter after subcutaneous transplantation of MIAPaCa2 cells (n=10 treatment, n=10 control) into the mouse right flank, mice were treated with 10 mM of peptide for 27 days dissolved in DMSO. The peptide was applied directly into the tumor. The control group was treated with phosphate buffered saline solution alone.
HE staining and immunostaining for Ki67 (n=6 treatment, n=7 control) was performed as described by the manufacturer. For evaluation the Zeiss Axioplan 2 microscope was used. Photos are made with Zeiss Axiocam. For photos 40× objectives were used. Statistical Analysis. Data are presented as means and differences in means with 95% confidence intervals for the differences. Tests for statistical differences were performed using t-tests and Mann-Whitney tests and Wilcoxon tests. For the in vivo experiments, at least 10 mice were used each group. This number was derived by power analysis to detect a 50% reduction in tumor size, with a beta error of 3%. Because the overall sample size was small and outcome variables could have a non-normal distribution, the non-parametric Mann-Whitney test was used to detect statistical significant differences in each group. P values less than 0.05 were considered to be significant. The significance of the tumor take rates was calculated by using a Wilcoxon-test. […]

| Molecule | cellular localization (AsPC1 cells [1]) | internalization (green fluorescence) (AsPC1 cells [1]) | induction of apoptosis (AsPC1 cells [2]) | induction of apoptosis (MDA-MB-231-WT cells) | inhibition of cell proliferation [3] | inhibition of cell proliferation (AsPC1 cells [4]) | toxicity during treatment ([5]; listed as GIPC-PDZ-targeting peptide) | toxicity during treatment ([5]; listed as PDZ domain inhibitor) |
| --- | --- | --- | --- | --- | --- | --- | --- | --- |
| My-K(FI)PSQSK(4-Br-ben)SK(4-Br-ben)A (Myristoyl-K(fluorescein)PSQSK(Benzoyl(4-Br))SK(Benzoyl(4-Br))A) [CR1173] | localized on the membrane | internalization | – | – | – | – | – | – |
| My-PSQSK(4-Br-ben)SEA (Myristoyl-PSQSK(Benzoyl(4-Br))SEA) [CR1170] | – | – | no effect | no effect | – | – | – | – |
| My-PSQSK(ben)SK(ben)A (Myristoyl-PSQSK(Bz)SK(Bz)A) [CR1164] | – | – | no effect | no effect | almost no or little effect | almost no or little effect | – | – |
| My-PSQSSSK(4-Br-ben)A (Myristoyl-PSQSSSK(Benzoyl(4-Br))A) [CR1162] | – | – | – | – | almost no or little effect | almost no or little effect | – | – |
| My-K(FI)PSQSSSEA (Myristoyl-K(fluorescein)PSQSSSEA) [CR1171] | more dispersely localized | internalization | – | – | – | – | – | – |
| My-LLQGPSQSSSEA (Myristoyl-LLQGPSQSSSEA) [SEQ ID NO: 22] | – | – | significant induction of apoptosis | significant induction of apoptosis | significant inhibitions | significant inhibitions | – | – |
| My-SPSASK(4-Br-ben)SQ (Myristoyl-SPSASK(Benzoyl(4-Br))SQ) [CR2059] | – | – | no effect | no effect | very little effect | very little effect | – | – |
| CCCCCCCCCCCCCC(=O)N1CCC[C@H]1C(=O)N[C@@H](CO)C(=O)N[C@@H](CCC(N)=O)C(=O)N[C@@H](CO)C(=O)N[C@@H](CO)C(=O)N[C@@H](CO)C(=O)N[C@@H](CCC(=O)O)C(=O)N[C@@H](C)C(=O)O [PSQSSSEA, P-S-Q-S-S-S-E-A] (Myristoyl-PSQSSSEA-OH) | – | – | – | – | – | – | without showing toxicity | did not show any toxicity |
| My-SESPSASQ (Myristoyl-SESPSASQ) [CR2055] | – | – | no effect | no effect | no effect | no effect | – | – |
| My-K(FI)PSQSK(ben)SK(ben)A (Myristoyl-K(fluorescein)PSQSK(Bz)SK(Bz)A) [CR1172] | more dispersely localized | internalization | – | – | – | – | – | – |
